Data reported in patent US20230382924A1, “MODULATORS OF CYSTIC FIBROSIS TRANSMEMBRANE CONDUCTANCE REGULATOR” (VERTEX PHARMACEUTICALS INCORPORATED, priority 2020, published 2023).
Several values for one entry are separate records, joined by “and”; a condition that tells them apart may be missing. Equal values may be shown once. Read-outs that look alike come from different tables or passages of the source.

Experiments:
F508del = target: T1, F508del (Homo sapiens, UniProt P13569, DEL508-508); experiment: 3T3 assay: membrane potential optical assay for F508del correction in NIH 3T3 cells; format: cell-based; details: for Emax: NIH3T3
T1 construct: expressed in transfected cells
From the text: 1. Membrane Potential Optical Methods for Assaying F508del Modulation Properties of Compounds
The assay utilizes fluorescent voltage sensing dyes to measure changes in membrane potential using a fluorescent plate reader (e.g., FLIPR III, Molecular Devices, Inc.) as a readout for increase in functional F508del in NIH 3T3 cells. The driving force for the response is the creation of a chloride ion gradient in conjunction with channel activation by a single liquid addition step after the cells have previously been treated with compounds and subsequently loaded with a voltage sensing dye.
2. Identification of Corrector Compounds
To identify correctors of F508del, a single-addition HTS assay format was developed. This HTS assay utilizes fluorescent voltage sensing dyes to measure changes in membrane potential on the FLIPR III as a measurement for increase in gating (conductance) of F508del in F508del NIH 3T3 cells. The F508del NIH 3T3 cell cultures were incubated with the corrector compounds at a range of concentrations for 18-24 hours at 37° C., and subsequently loaded with a redistribution dye. The driving force for the response is a Cl^− ion gradient in conjunction with channel activation with forskolin in a single liquid addition step using a fluorescent plate reader such as FLIPR III.
Bath Solution #1: (in mM) NaCl 160, KCl 4.5, CaCl2) 2, MgCl2 1, HEPES 10, pH 7.4 with NaOH.
Chloride-free bath solution: Chloride salts in Bath Solution #1 (above) are substituted with gluconate salts.
NIH3T3 mouse fibroblasts stably expressing F508del are used for optical measurements of membrane potential. The cells are maintained at 37° C. in 5% CO2 and 90% humidity in Dulbecco's modified Eagle's medium supplemented with 2 mM glutamine, 10% fetal bovine serum, 1×NEAA, b-ME, 1×pen/strep, and 25 mM HEPES in 175 cm^2 culture flasks. For all optical assays, the cells were seeded at ˜20,000/well in 384-well matrigel-coated plates. For the correction assays, the cells are cultured at 37° C. with and without compounds for 16-24 hours.

CFTR [1] = target: T2, CFTR (Homo sapiens, UniProt P13569); experiment: Membrane Potential Dye, Enteroid Assay B; format: cell-based; details: for EC50: read-out: Ent. B EC50
Method in brief: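 Enteroid cells loaded 25 min at room temperature with 20 μM methyl oxonol plus 30 μM CaCCinh-A01 and 30 μM Chicago Sky Blue, then switched to chloride-free gluconate buffer. Chloride transport was started by chloride-free stimulation solution, with fluorescence read for 15 min.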

CFTR [2] = target: T2, CFTR; experiment: Membrane Potential Dye, Enteroid Assay A; format: cell-based; details: for EC50: read-out: Ent. A EC50
Method in brief: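 Enteroid cells were loaded with methyl oxonol membrane potential dye (plus CaCCinh-A01 and Chicago Sky Blue) for 25 min at room temperature. Chloride transport was started by switching to chloride-free gluconate stimulation solution, with fluorescence read for 15 min. Activity was expressed as % of a triple-combination CFTR modulator control (3 μM, 3 μM, 300 nM acute).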

[3] = NIH 3T3 cells, F508del correction
[4] = Table 8, read-out: 3T3 Max Activity

T1 sequence (P13569 with tags, fused parts or gaps DEL508-508): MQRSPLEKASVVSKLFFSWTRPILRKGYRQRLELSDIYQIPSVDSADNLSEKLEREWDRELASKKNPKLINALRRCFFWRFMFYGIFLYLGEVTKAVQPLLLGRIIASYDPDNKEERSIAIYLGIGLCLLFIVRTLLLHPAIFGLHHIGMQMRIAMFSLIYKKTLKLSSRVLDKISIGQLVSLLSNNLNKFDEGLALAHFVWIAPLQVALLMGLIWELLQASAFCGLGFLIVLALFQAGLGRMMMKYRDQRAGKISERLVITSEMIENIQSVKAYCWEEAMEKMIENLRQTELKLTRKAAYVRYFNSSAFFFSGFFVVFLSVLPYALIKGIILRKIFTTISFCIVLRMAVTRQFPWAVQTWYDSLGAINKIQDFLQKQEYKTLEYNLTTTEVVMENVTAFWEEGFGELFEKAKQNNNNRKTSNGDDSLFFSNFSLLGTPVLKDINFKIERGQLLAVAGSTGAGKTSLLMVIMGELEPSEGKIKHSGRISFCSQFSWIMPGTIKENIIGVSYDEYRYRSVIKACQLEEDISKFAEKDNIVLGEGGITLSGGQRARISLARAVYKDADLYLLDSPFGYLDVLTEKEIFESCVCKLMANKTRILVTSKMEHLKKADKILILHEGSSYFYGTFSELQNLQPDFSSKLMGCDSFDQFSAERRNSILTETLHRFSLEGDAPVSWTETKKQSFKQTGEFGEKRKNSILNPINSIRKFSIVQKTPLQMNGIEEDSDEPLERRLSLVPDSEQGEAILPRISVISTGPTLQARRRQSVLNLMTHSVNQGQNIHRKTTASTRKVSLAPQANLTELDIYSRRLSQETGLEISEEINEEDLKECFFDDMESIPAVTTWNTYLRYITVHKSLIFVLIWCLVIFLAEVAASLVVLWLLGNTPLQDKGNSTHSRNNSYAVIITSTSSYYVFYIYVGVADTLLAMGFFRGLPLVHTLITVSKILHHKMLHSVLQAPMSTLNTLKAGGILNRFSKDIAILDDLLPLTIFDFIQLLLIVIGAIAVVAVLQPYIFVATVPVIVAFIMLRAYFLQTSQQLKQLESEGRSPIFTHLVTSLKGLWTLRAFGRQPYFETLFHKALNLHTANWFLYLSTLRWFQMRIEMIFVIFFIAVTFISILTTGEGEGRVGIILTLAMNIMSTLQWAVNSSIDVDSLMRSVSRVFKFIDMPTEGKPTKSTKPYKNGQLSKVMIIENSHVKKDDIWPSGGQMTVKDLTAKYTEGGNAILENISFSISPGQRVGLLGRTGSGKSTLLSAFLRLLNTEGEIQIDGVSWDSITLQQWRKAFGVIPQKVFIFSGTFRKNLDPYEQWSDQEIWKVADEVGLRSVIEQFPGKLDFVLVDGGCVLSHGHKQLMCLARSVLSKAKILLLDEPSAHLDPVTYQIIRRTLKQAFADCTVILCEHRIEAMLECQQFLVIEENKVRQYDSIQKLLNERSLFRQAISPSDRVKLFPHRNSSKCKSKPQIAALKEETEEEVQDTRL
T2 sequence (P13569 with tags, fused parts or gaps DEL508-508): as above

Row | SMILES | EC50 (F508del; [3]) [µM] | Ent. A Max Activity (CFTR [2]; Enteroid Assay A) | EC50 (CFTR [2]; Enteroid Assay A) [µM] | Emax (F508del; [4]) [%] | EC50 (F508del; Table 8) [µM] | Ent. A Max Activity (CFTR [2]; Table 8) | EC50 (CFTR [2]; Table 8) [µM] | other results
1 | Cc1cccc(C)c1-c1cc2nc(n1)NS(=O)(=O)c1ccnc(c1)C(=O)N[C@H](CC1CCCCC1)CO2 [Compound 142] | – | – | – | > 60 | < 1 | +++ (+++ is >60%) | 1 to 3 | Ent. B Max Activity (CFTR [1]; Table 8): ++ (++ is 306%); EC50 (CFTR [1]; Table 8): < 1 µM
2 | Cc1cccc(C)c1-c1cc2nc(n1)NS(=O)(=O)c1cccc(c1)C(=O)NCC(c1ccc([Si](C)(C)C)cc1)O2 (centres unmarked) | – | – | – | – | – | – | – | ring closure, yield after HPLC (from Cc1cccc(C)c1-c1cc(OC(CN)c2ccc([Si](C)(C)C)cc2)nc(NS(=O)(=O)c2cccc(C(=O)O)c2)n1, amide bond, 13-membered ring, HATU/DIEA, DMF, 55.1 mM, 25.0 °C, 0.5 h): 23%
3 | Cc1cccc(C)c1-c1cc2nc(n1)NS(=O)(=O)c1cccc(c1)C(=O)NC[C@H](C)O2 [Compound 27, (10S)-6-(2,6-Dimethylphenyl)-10-methyl-2,2-dioxo-9-oxa-2λ^6-thia-3,5,12,19-tetrazatricyclo[12.3.1.14,8]nonadeca-1(18),4(19),5,7,14,16-hexaen-13-one] | – | – | – | – | – | – | – | ring closure, yield after HPLC (from Cc1cccc(C)c1-c1cc(O[C@@H](C)CN)nc(NS(=O)(=O)c2cccc(C(=O)O)c2)n1, amide bond, 13-membered ring, HATU/DIEA, DMF, 25.0 °C, 1.0 h, 2 steps): 55%
4 | Cc1cccc(C)c1-c1cc2nc(n1)NS(=O)(=O)c1cccc(c1)C(=O)NC[C@H](c1ccccc1)O2 [Compound 26, (10S)-6-(2,6-Dimethylphenyl)-2,2-dioxo-10-phenyl-9-oxa-2λ^6-thia-3,5,12,19-tetrazatricyclo[12.3.1.14,8]nonadeca-1(18),4(19),5,7,14,16-hexaen-13-one] | – | – | – | – | – | – | – | ring closure, yield after HPLC (from Cc1cccc(C)c1-c1cc(O[C@H](CN)c2ccccc2)nc(NS(=O)(=O)c2cccc(C(=O)O)c2)n1, amide bond, 13-membered ring, HATU/DIEA, DMF, 25.9 mM, 25.0 °C, 1.0 h, 2 steps): 38%
5 | Cc1cccc(C)c1-c1cc2nc(n1)NS(=O)(=O)c1cccc(c1)C(=O)N[C@H](CC(C)C)C(c1ccc(C(C)(C)C)cc1)O2 (some centres unmarked) | – | – | – | – | – | – | – | ring closure, yield after HPLC (from Cc1cccc(C)c1-c1cc(OC(c2ccc(C(C)(C)C)cc2)[C@H](N)CC(C)C)nc(NS(=O)(=O)c2cccc(C(=O)O)c2)n1, amide bond, 13-membered ring, HATU/NaOtBu, DMF/THF, 69.4 mM, 25.0 °C, 2.0 h, 2 steps): 21% and 15%
6 | Cc1cccc(C)c1-c1cc2nc(n1)NS(=O)(=O)c1cncc(c1)C(=O)N[C@H](CC1CCCCC1)CO2 [Compound 412] | – | – | – | > 60 | < 1 | +++ (+++ is >60%) | < 1 | –
7 | Cc1cccc(C)c1-c1cc2nc(n1)NS(=O)(=O)c1cccc(c1)C(=O)NC[C@H](CO[Si](c1ccccc1)(c1ccccc1)C(C)(C)C)O2 | – | – | – | – | – | – | – | ring closure, yield after HPLC (from Cc1cccc(C)c1-c1cc(O[C@H](CN)CO[Si](c2ccccc2)(c2ccccc2)C(C)(C)C)nc(NS(=O)(=O)c2cccc(C(=O)O)c2)n1, amide bond, 13-membered ring, HATU/DIEA, DMF, 30.8 mM, 25.0 °C, 1.0 h, 2 steps): 98%
8 | Cc1cccc(C)c1-c1cc2nc(n1)NS(=O)(=O)c1cccc(c1)C(=O)NCC(c1ccc(C3CCC3)cc1)O2 (centres unmarked) | – | – | – | – | – | – | – | ring closure, yield after HPLC (from Cc1cccc(C)c1-c1cc(OC(CN)c2ccc(C3CCC3)cc2)nc(NS(=O)(=O)c2cccc(C(=O)O)c2)n1, amide bond, 13-membered ring, HATU/DIEA, DMF, 189.0 mM, 25.0 °C, 0.5 h): 1%
9 | Cc1cccc(C)c1-c1cc2nc(n1)NS(=O)(=O)c1cccc(c1)C(=O)NC1CC(CN(CCC(C)(C)C)C1)O2 (centres unmarked) | – | – | – | – | – | – | – | ring closure, yield after HPLC (from Cc1cccc(C)c1-c1cc(Cl)nc(NS(=O)(=O)c2cccc(C(=O)NC3CC(O)CN(CCC(C)(C)C)C3)c2)n1, snar bond, 14-membered ring, NaH, NMP, 5.8 mM, 70.0 °C, 2.0 h, 2 steps): 2%; ring closure, yield after HPLC (from Cc1cccc(C)c1-c1cc(Cl)nc(NS(=O)(=O)c2cccc(C(=O)NC3CC(O)CN(CCC(C)(C)C)C3)c2)n1, snar bond, 14-membered ring, NaH, NMP, 9.2 mM, 70.0 °C, 2.0 h, 2 steps): 3%
10 | Cc1ccc2cc1S(=O)(=O)Nc1nc(cc(-c3c(C)cccc3C)n1)OC[C@@H](CC1CCCCC1)NC2=O [Compound 160] | < 1 | ++ (++ is 30-60%) | 1 to 3 | – | – | – | – | –

Second part, led by results:

Row | EC50 (F508del; [3]) [µM] | Ent. A Max Activity (CFTR [2]; Enteroid Assay A) | EC50 (CFTR [2]; Enteroid Assay A) [µM] | Emax (F508del; [4]) [%] | EC50 (F508del; Table 8) [µM] | Ent. A Max Activity (CFTR [2]; Table 8) | EC50 (CFTR [2]; Table 8) [µM] | SMILES | other results
11 | < 1 | +++ (+++ is >600%) | < 1 | – | – | – | – | Cc1cccc(C)c1-c1cc2nc(n1)NS(=O)(=O)c1cccc(c1)C(=O)N[C@H](CC(C)(C)C)CO2 [Compound 97, (11R)-6-(2,6-dimethylphenyl)-11-(2,2-dimethylpropyl)-2,2-dioxo-9-oxa-2λ^6-thia-3,5,12,19-tetrazatricyclo[12.3.1.14,8]nonadeca-1(18),4(19),5,7,14,16-hexaen-13-one] | EC50 (CFTR [1]; Enteroid Assay B): < 1 µM
12 | < 1 | +++ (+++ is >600%) | < 1 | – | – | – | – | Cc1cccc(C)c1-c1cc2nc(n1)NS(=O)(=O)c1cccc(c1)C(=O)N[C@H](CC1CCCCC1)CO2 [Compound 365] | EC50 (CFTR [1]; Enteroid Assay B): < 1 µM
13 | – | – | – | > 60 | < 1 | +++ (+++ is >60%) | < 1 | Cc1cccc(C)c1-c1cc2nc(n1)NS(=O)(=O)c1cccc(c1)C(=O)NC[C@@H](c1ccc(C(C)(C)C)cc1)O2 (single isomer, unassigned) [Compound 5] | Ent. B Max Activity (CFTR [1]; Table 8): +++ (+++ is >60%); EC50 (CFTR [1]; Table 8): < 1 µM
14 | – | – | – | > 60 | < 1 | + (+ is <30%) | – | Cc1cccc(C)c1-c1cc2nc(n1)NS(=O)(=O)c1cccc(c1)C(=O)NC[C@H](C1CCCCC1)O2 (stereo in doubt) [Compound 270] | –
15 | < 1 | +++ (+++ is >600%) | < 1 | – | – | – | – | Cc1cccc(C)c1-c1cc2nc(n1)NS(=O)(=O)c1cccc(c1)C(=O)N[C@H](Cc1ccccc1)CO2 [Compound 350] | –
16 | – | – | – | > 60 | < 1 | +++ (+++ is >60%) | < 1 | Cc1cccc(C)c1-c1cc2nc(n1)NS(=O)(=O)c1cccc(c1)C(=O)N[C@H](CC(C)C)C(C1CC1)O2 (stereo in doubt) [Compound 239] | –
17 | – | – | – | > 60 | < 1 | +++ (+++ is >60%) | < 1 | Cc1cccc(C)c1-c1cc2nc(n1)NS(=O)(=O)c1cccc(c1)C(=O)N[C@H](CCC(C)(C)C)CO2 (single isomer, unassigned) [Compound 47] | –
18 | < 1 | ++ (++ is 30-60%) | 3 to 30 | – | – | – | – | Cc1cccc(C)c1-c1cc2nc(n1)NS(=O)(=O)c1cccc(c1)C(=O)NCC(C)(C)CO2 [Compound 202] | –
19 | < 1 | +++ (+++ is >600%) | < 1 | – | – | – | – | Cc1cccc(C)c1-c1cc2nc(n1)NS(=O)(=O)c1cccc(c1)C(=O)NC[C@@H](Cc1ccccc1)O2 [Compound 347] | –
20 | – | – | – | – | < 1 | +++ (+++ is >60%) | < 1 | Cc1cccc(C)c1-c1cc2nc(n1)NS(=O)(=O)c1cccc(c1)C(=O)NCC(c1ccc(C(C)C)cc1)O2 (centres unmarked) [Compound 271] | 3T3 Max Activity (F508del; Table 8): +++ (+++ is >60%)
21 | – | – | – | > 60 | < 1 | +++ (+++ is >60%) | < 1 | Cc1cccc(C)c1-c1cc2nc(n1)NS(=O)(=O)c1cccc(c1)C(=O)NCC(c1ccc(C3(C(F)(F)F)CC3)cc1)O2 (racemic) [Compound 9, 6-(2,6-dimethylphenyl)-10-{4-[1-(trifluoromethyl)cyclopropyl]phenyl}-9-oxa-2λ^6-thia-3,5,12,19-tetraazatricyclo[12.3.1.14,8]nonadeca-1(18),4(19),5,7,14,16-hexaene-2,2,13-trione] | –
22 | < 1 | +++ (+++ is >600%) | 1 to 3 | – | – | – | – | Cc1cccc(C)c1-c1cc2nc(n1)NS(=O)(=O)c1cccc(c1)C(=O)N[C@H]1CC[C@H](CC1)O2 [Compound 198] | Emax (F508del; heading: 3T3 Max Activity, NIH 3T3 cells, F508del correction): > 60%
23 | < 1 | +++ (+++ is >600%) | < 1 | – | – | – | – | Cc1ccccc1-c1cc2nc(n1)NS(=O)(=O)c1cccc(c1)C(=O)N[C@H](CC(C)C)CO2 [Compound 329] | –
24 | – | – | – | > 60 | < 1 | +++ (+++ is >60%) | < 1 | Cc1cccc(C)c1-c1cc2nc(n1)NS(=O)(=O)c1cccc(c1)C(=O)N[C@H](CC1CCCCC1)[C@H](C)O2 [Compound 143] | –
